Here are results for four molecules from patent US20090149495A1, “COMPOUNDS” (priority 2005, published 2009).

One test deals with T1, mGluR1 (Rattus norvegicus, UniProt P23385).
T1 construct: rat cerebellar membrane preaparation was used; from tissue; host or cells: rat cerebellum (membrane preparation)
Briefly: MGluR1 receptor binding test ([3H]R214127 displacement, rat cerebellar membrane). The conditions noted are these: rat cerebellar membranes; radioligand [3H]R214127 3 nM; read-out: mGlu1 Ki. The procedure: MGluR1 receptor binding tests were performed according to modified method of Lavreysen et al. (Mol.Pharm., 2003, 63, 1082). Based on the high homology between the human and rat mGluR1 receptors, rat cerebellar membrane preaparation was used to determine the binding characteristics of reference compounds and novel compounds to the rat mGluR1. As radioligand [3H]R214127 (3 nM) was used and the nonspecific binding was determined in the presence of 1 μM of R214127.
IC-50 values were determined from displacement curves by nonlinear regression analysis and were converted by equation method of Cheng and Prusoff (Biochem. Pharmacol., 1973, 22, 3099) to Ki values.

In another test the target is mGluR5. Briefly: MGluR5 receptor binding test ([3H]-M-MPEP displacement). The conditions noted are these: radioligand [3H]-M-MPEP 2 nM; table does not say rat cortical membranes or hmGluR5a cells; read-out: mGlu5 Ki. On the set-up: species or system rat or human. The method, then: MGluR5 receptor binding was determined according to Gasparini et.al. (Bioorg. Med. Chem. Lett. 2000, 12:407-409) with modifications. Rat cerebro-cortical membrane preparation was used to determine the binding characteristics of reference compounds and novel compounds to the rat mGluR5. The A18 cell line expressing hmGluR5a (purchased from Euroscreen) was used to determine binding characteristics of the chemical compounds to the human mGluR5a receptor. As radioligand [3H]-M-MPEP (2 nM) was used. The nonspecific binding was determined in the presence of 10 μM M-MPEP.

T1 sequence (P23385 19-1199): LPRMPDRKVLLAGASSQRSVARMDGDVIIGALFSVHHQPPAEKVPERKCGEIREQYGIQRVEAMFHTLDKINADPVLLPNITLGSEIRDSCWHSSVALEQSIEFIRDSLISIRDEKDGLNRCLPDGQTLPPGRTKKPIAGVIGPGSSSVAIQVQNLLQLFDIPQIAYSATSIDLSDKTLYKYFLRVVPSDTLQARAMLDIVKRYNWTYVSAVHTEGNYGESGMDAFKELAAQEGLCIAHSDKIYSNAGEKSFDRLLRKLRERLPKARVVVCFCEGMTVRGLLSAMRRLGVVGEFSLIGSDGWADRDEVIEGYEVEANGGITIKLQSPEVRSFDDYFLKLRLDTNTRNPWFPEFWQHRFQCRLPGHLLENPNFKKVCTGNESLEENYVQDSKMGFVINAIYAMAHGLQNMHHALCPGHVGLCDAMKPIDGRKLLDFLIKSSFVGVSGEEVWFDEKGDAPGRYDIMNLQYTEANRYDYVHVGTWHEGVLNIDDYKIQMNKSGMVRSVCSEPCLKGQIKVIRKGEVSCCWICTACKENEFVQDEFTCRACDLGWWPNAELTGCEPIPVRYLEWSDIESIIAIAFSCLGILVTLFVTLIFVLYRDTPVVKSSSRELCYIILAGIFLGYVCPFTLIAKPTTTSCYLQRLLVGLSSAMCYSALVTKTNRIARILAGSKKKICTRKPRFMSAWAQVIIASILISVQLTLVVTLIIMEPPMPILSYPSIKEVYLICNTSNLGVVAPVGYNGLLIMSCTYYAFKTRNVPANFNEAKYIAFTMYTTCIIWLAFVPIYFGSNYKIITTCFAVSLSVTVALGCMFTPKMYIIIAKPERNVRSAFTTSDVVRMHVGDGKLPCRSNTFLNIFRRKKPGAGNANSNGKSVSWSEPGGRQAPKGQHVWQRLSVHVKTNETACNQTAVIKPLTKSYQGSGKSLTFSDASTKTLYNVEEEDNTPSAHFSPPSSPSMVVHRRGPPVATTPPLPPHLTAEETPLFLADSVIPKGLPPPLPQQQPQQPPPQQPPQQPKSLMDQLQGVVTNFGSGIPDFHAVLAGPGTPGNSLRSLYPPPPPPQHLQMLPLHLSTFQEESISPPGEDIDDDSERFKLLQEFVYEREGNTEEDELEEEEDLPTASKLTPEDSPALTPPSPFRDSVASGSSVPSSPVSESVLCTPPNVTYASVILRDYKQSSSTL

What is called Ki is the dissociation constant of the complex between target and ligand, obtained from inhibition or displacement. For the molecule `O=S(=O)(c1ccc(Cl)cc1)c1sc2nc(O)ccc2c1-c1ccc(Cl)cc1` [Compound 1, 2-(4-Chloro-Benzenesulfonyl)-3-(4-Chloro-Phenyl)-7H-Thieno[2,3-b]Pyridin-6-One], the values for the Ki at mGluR1 and at mGluR5 were over 500 nM and under 500 nM, respectively. For the molecule `N#Cc1cccc(S(=O)(=O)c2sc3nc(O)ccc3c2-c2ccc(Cl)cc2)c1` [Compound 2, 3-[3-(4-chloro-phenyl)-6-oxo-6,7-dihydro-thieno[2,3-b]pyridin-2-sulfonyl]-benzonitrile], the Ki on mGluR1 and on mGluR5 was under 500 nM each time. Take `O=C(OCc1ccc(F)cc1)c1sc2[nH]c(=O)ccc2c1-c1ccc(Cl)cc1` [Compound 3, 3-(4-chloro-phenyl)-6-oxo-6,7-dihydro-thieno[2,3-b]pyridine-2-carboxylic acid 4-fluoro-benzyl ester]: the Ki on mGluR1 and on mGluR5 was under 500 nM each time.

For the molecule `Cc1cccc(S(=O)(=O)c2sc3[nH]c(=O)ccc3c2-c2ccc(Cl)cc2)c1` [Compound 4, 3-(4-chloro-phenyl)-2-(toluene-3-sulfonyl)-7H-thieno[2,3-b]pyridin-6-one], the Ki on mGluR5 is over 500 nM.
